Source: US20040248898A1, “Remedies for arteriosclerosis” (priority 2001, published 2004)
Read-outs that look alike come from different tables or passages of the source.

What was measured:
[1] = biological target: T1, human group V sPLA2 (Homo sapiens, UniProt P39877); experiment: Chromogenic assay for inhibitory activity, group V sPLA2 inhibition tests; assay type: biochemical
T1 construct: made in house; host or cells: CHO cells, stably transfected (pSVL vector); culture supernatant used
T1 sequence (P39877 21-138): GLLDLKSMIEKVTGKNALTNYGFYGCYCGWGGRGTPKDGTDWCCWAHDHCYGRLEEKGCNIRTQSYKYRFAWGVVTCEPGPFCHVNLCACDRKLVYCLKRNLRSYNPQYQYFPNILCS
Text: (§1) A. Preparation of Cells Expressing Human Group V or X sPLA2 and Preparation of the Culture Supernatant Thereof
(§2) cDNA sequence encoding human group V or X sPLA2 (Chen et al., J. Biol. Chem, 1994, 269, 2365-2368; and Cupillard et al., J. Biol. Chem, 1997, 272, 15745-15752) was inserted in forward direction downstream the promoter of an expression vector for mammal cells, pSVL SV40 Late Promoter Expression Vector (Amersham Pharmacia Biotech). The expression vector was transfected into CHO host cells using a Lipofect AMINE regent (Gibco BRL) according to the instructions of the manufacturer to provide CHO cells stably expressing human group V or X sPLA2. The cells were incubated in a-MEM medium containing 10% fetal calf serum for 3 days, and the culture supernatant was used to determine the activity of the enzymes.
(§3) B. Assay for Inhibitory Activity
(§4) The following chromogenic assay is used to identify and evaluate inhibitors of group V or X sPLA2. The assay has been adapted for high volume screening using 96 well microtiter plates. A general description of this assay is found in the article, “Analysis of Human Synovial Fluid Phospholipase A2 on Short Chain Phosphatidylcholine-Mixed Micelles: Development of a Spectrophotometric Assay Suitable for a Microtiterplate Reader”, by Laure. J. Reynolds, Lori L. Hughes and Edward A Dennis, Analytical Biochemistry, 204, pp 190-197, 1992.
(§5) A test compound (or a solvent blank) was added according to the predetermined arrangement of the plate, and diheptanoyl thio PC (1 mM) was reacted with human group V or X sPLA2 in the presence of Triton X-100 (0.3 mM), 5,5′-dithiobis-(2-nitrobenzoic acid) (125 μM) in a Tris buffer (25mM, pH7.3), CaCl2 (10 mM), KCl (100 mM), bovine serum albumin. Absorbance at 405 nm is read to estimate the inhibitory activity.
(§6) The reaction with human group V sPLA2 was performed in 40 μl/well at 40° C. for 45 minutes, and the reaction with human group X sPLA2 was performed in 15 μl/well at 40° C. for 30 minutes.

[2] = biological target: T2, human group X sPLA2 (Homo sapiens, UniProt O15496); experiment: Fatty acid release from isolated human lipoproteins induced by group X sPLA2; assay type: biochemical; details: agent 10 μmol/L, added with sPLA2; arachidonic acid from LDL (FIG. 2)
T2 sequence (O15496 43-165): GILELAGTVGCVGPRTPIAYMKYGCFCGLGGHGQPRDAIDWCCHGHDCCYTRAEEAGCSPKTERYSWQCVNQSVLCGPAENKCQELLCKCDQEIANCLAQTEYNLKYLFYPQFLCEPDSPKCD
Method: LDL and HDL were isolated from human plasma by ultracentrifugation (Havel, et al., J. Clin. Invest. 34, 1345-1353 (1955)). Human group IB, IIA and X sPLA2s (0.5 nmol/L to 500 nmol/L) were reacted with LDL and HDL (0.35-1 mg/ml) at 37° C. in a solution containing 12.5 mmol/L Tris-HCL buffer (pH 8.0), 125 mg/L bovine serum albumin, and 1 mmol/L calcium chloride. The fatty acids released from the lipoproteins were extracted according to the method of Dole (Dole, et al., J. Biol. Chem. 235, 2595-2599 (1960)), and were labeled with 9-anthryldiazomethane by the known method (Hanasaki, et al., J. Biol. Chem. 274, 34203-34211 (1999)). Then, the released fatty acids were determined by detecting fluorescence of the labeled products (fatty acids) eluted from high performance liquid chromatography (HPLC) on reverse-phase column (LichroCART 125-4 Superspher 100 RP-18 columnmol/Merck). In order to examine does-dependent release of fatty acids induced by each sPLA2, the lipoprotein was reacted with 0.5, 5, 50, and 500 nmol/L group X sPLA2, and 50 and 500 nmol/L group IB and IIA sPLA2 for 60 minutes. Further, in order to examine time-dependent fatty acid release induced by sPLA2, each 50 nmol/L sPLA2 was used, and the change in the release with time course was traced during the period time of 4 hours after the sPLA2 addition. In the experiment for determining the inhibitory activity of a sPLA2 inhibitor (indoxam; Yokota, et al., Biochim. Biophys. Acta 1438, 213-222 (1999)), a cyclooxygenase (COX) inhibitor (indomethacin) or a 5-lipoxygenase (5-LOX) inhibitor (AA-861; 2,3,5-trimethyl-6-(12-hydroxy-5,10-dodecadiynyl)-1,4-benzoquinone (Yoshimoto, et al., Biochem. Biophys. Acta. 713, 470-473 (1982)), those agents were added to the reaction giving a final concentration of 10 μmol/L, virtually simultaneously with the addition of sPLA2.

[3] = biological target: T2, human group X sPLA2; experiment: Negative charge of isolated human lipoproteins (agarose gel electrophoresis) after group X sPLA2; assay type: biochemical; details: agent 10 μmol/L; LDL and HDL, 50 nmol/L sPLA2
Method: LDL and HDL were isolated from human plasma by ultracentrifugation (Havel, et al., J. Clin. Invest. 34, 1345-1353 (1955)). Human group IB, IIA and X sPLA2s (50 nmol/L) and CuSO4 (20 μmol/L) were reacted with LDL and HDL (1 mg/ml) at 37° C. for 3, 6, and 24 hours in a solution containing 12.5 mmol/L Tris-HCL buffer (pH 8.0), 125 mg/L bovine serum albumin, and 1 mmol/L calcium chloride. Then, a 1 μg sample of LDL and a 2 μg sample of HDL were electrophoresed on agarose gel (Helena Laboratories, TITAN GEL Lipoprotein; 90V, 25 minutes). After the electrophoresis, the gel was dried at 50 to 60° C. for about 1 hour, stained with 6 ml of a stain solution (Helena Laboratories, Fat Red 7B agarose solution) for about 3 minutes, and then decolorized with 25 ml of a decolorizing solution (70% methanol). In the experiment for determining the activity of a sPLA2 inhibitor (indoxam), a COX inhibitor (indomethacin) or a 5-LOX inhibitor (AA-861), those agents were added to the reaction giving a final concentration of 10 μmol/L, virtually simultaneously with the addition of sPLA2.

[4] = tested on: mouse peritoneal macrophages; experiment: Uptake of LDL into mouse peritoneal macrophages induced by group X sPLA2 (Oil Red O stain); assay type: cell-based; details: agent 10 μmol/L; 0.2 mg/ml LDL, 50 nmol/L group X sPLA2, 48 hours
Method: C57BL/6J mice (male, 8 weeks) were injected peritoneally with 2 ml of a 4% thioglycollate solution, and, 4 days later, the cells from the peritoneal fluids were harvested. The cells were plated on a chamber slide, and incubated for 2 hours in the presence of the serum-free medium (BIO […]: X-VIVO 15). Then, non-adherent cells were removed by the washing procedure to prepare peritoneal macrophages. The cells were added with 0.2 mg/ml LDL (Sigma) and 50 nmol/L group X PLA2, and incubated in the serum-free medium for 48 hours. Uptake of LDL into macrophages were confirmed by immobilizing the cells with 4% formaldehyde for 20 minutes, and then staining the lipids with an Oil Red O stain solution.

[5] = biological target: T1, human group V sPLA2; experiment: Fatty acid (linoleic acid) release from isolated human lipoproteins induced by group V sPLA2; assay type: biochemical; details: agent 10 μmol/L; from LDL (FIG. 8)
Method: LDL and HDL were isolated from human plasma by ultracentrifugation (Havel, et al., J. Clin. Invest. 34, 1345-1353 (1955)). […] Biol. Chem. 235, 2595-2599 (1960)). The fatty acids were labeled with 9-anthryldiazomethane by the known method ([…], et al., J. Biol. Chem. 274, 34203-34211 (1999)), and then were determined by detecting fluorescence of the labeled products (fatty acids) eluted from high performance liquid chromatography (HPLC) on reverse-phase column (LichroCART 125-4 Superspher 100 RP-18 column, Merck).

[6] = biological target: T1, human group V sPLA2; experiment: Degeneration (negative charge, agarose gel electrophoresis) of isolated human lipoproteins by group V sPLA2; assay type: biochemical; details: agent 10 μmol/L; LDL and HDL, 50 nmol/L sPLA2
Method: LDL and HDL were isolated from human plasma by ultracentrifugation (Havel, et al., J. Clin. Invest. 34, 1345-1353 (1955)). Human group IIA and V sPLA2s (50 nmol/L) were reacted with LDL and HDL (1 mg/ml) at 37° C. for 3, 6, and 24 hours in a solution containing 12.5 mmol/L Tris-HCL buffer (pH 8.0), 125 mg/L bovine serum albumin, and 1 mmol/L calcium chloride, and then 1 μg of the LDL and 2 μg of the HDL were spotted on an agarose gel (Helena Laboratories, TITAN GEL Lipoprotein), followed by being electrophoresed at 90V for 25 minutes. After the electrophoresis, the gels were dried at 50 to 60° C. for about one hour, stained with 6 ml of a stain solution (Helena Laboratories, Fat Red 7B agarose solution) for about three minutes, and then decolorized with 25 ml of a decolorizing solution (70% methanol).

[7] = biological target: T2, human group X sPLA2; experiment: Chromogenic assay for inhibitory activity, group X sPLA2 inhibition tests; assay type: biochemical; set-up: made in house; host or cells: CHO cells, stably transfected (pSVL vector); culture supernatant used
Text: as §1, §2, §3, §4, §5, §6

[8] = diheptanoyl thio PC 1 mM, 40° C., 45 minutes, absorbance at 405 nm, read-out: IC50 group V sPLA2 inhibition
[9] = diheptanoyl thio PC 1 mM, 40° C., 30 minutes, absorbance at 405 nm, read-out: IC50 group X sPLA2 inhibition

| SMILES | IC50 [1, 8] | IC50 [7, 9] | other results |
| --- | --- | --- | --- |
| CCc1ccc(-c2ccccc2Cc2c(CC)c(C(=O)C(N)=O)c3c(OCC(=O)O)nc(C)cn23)s1 [Compound 21] | 5 nM |  |  |
| CCc1c(C(=O)C(N)=O)c2c(OCC(=O)O)cccn2c1Cc1ccccc1-c1ccccc1 [indoxam] |  |  | Effect on fatty acid release induced by group X sPLA2 [2]: inhibited; Effect on lipoprotein degeneration (increase in negative charge) induced by group X sPLA2 [3]: inhibited; Effect on group X sPLA2-induced uptake of LDL into the cells [4]: inhibited; Effect on linoleic acid release induced by group V sPLA2 [5]: inhibited; Effect on lipoprotein degeneration induced by group V sPLA2 [6]: inhibited |
| NC(=O)c1cccc2c1c1c(OCC(=O)O)cccc1n2CC1CCCCC1 [Compound 8] | 3 nM | 3 nM |  |
| NC(=O)c1cccc2c1c1c(OCC(=O)O)cc(-c3ccco3)cc1n2Cc1ccccc1 [Compound 11] | 2 nM |  |  |
| CC1=C(C)C(=O)C(CCCCC#CCCCC#CCO)=C(C)C1=O [AA-861, 2,3,5-trimethyl-6-(12-hydroxy-5,10-dodecadiynyl)-1,4-benzoquinone] |  |  | Effect on fatty acid release induced by group X sPLA2 [2]: affected neither; Effect on lipoprotein degeneration (increase in negative charge) induced by group X sPLA2 [3]: affected neither |
| CCc1c(C(=O)C(N)=O)c2c(OCC(=O)O)nc(C)cn2c1Cc1ccccc1CC1CCCCC1 [Compound 20] | 11 nM |  |  |
| NC(=O)c1cccc2c1c1c(OCC(=O)O)cccc1n2Cc1cccc(Oc2ccccc2)c1 [Compound 9] | 1 nM | 13 nM |  |
| CCc1c(C(=O)C(N)=O)c2c(OCC(=O)O)nc(-c3ccccc3)cn2c1Cc1ccccc1 [Compound 3] | 5 nM |  |  |
| CCc1c(C(=O)C(N)=O)c2c(OCC(=O)O)nc(C)cn2c1Cc1ccccc1C1CCCC1 [Compound 14] |  | 9 nM |  |
| NC(=O)c1cccc2c1c1c(OCC(=O)O)cccc1n2Cc1ccccc1 [Compound 23] | 8 nM |  |  |
| CCc1c(C(=O)C(N)=O)c2c(OCC(=O)O)nc(C)cn2c1Cc1ccccc1Cc1ccccc1 [Compound 2] | 13 nM |  |  |
| NC(=O)C1=CCCc2c1c1c(OCC(=O)O)cccn1c2Cc1ccccc1 [Compound 7] | 2 nM |  |  |
| CCc1c(CC(N)=O)c2c(OCC(=O)O)nc(C)cn2c1Cc1ccc(F)cc1 [Compound 13] |  | 19 nM |  |
| CCc1c(C(=O)C(N)=O)c2c(OCC(=O)O)cccc2n1Cc1ccccc1-c1ccccc1 [Compound 19] |  |  | IC50 [1]: 6 nM; IC50 [7]: 26 nM |
| NC(=O)c1cccc2c1c1c(OCC(=O)O)ccc(F)c1n2Cc1ccccc1 [Compound 10] | 7 nM | 12 nM |  |
| CCc1c(C(=O)C(N)=O)c2c(OCC(=O)O)nc(C)cn2c1Cc1ccc(-c2ccccc2)cc1 [Compound 12] |  | 16 nM |  |
| CC(Cc1ccc(O)c(O)c1)C(C)Cc1ccc(O)c(O)c1 (centres unmarked) [NDGA] |  |  | Effect on group X sPLA2-induced uptake of LDL into the cells [4]: affected neither |
| CCCc1c(C(=O)C(N)=O)c2c(OCC(=O)O)nc(C)cn2c1Cc1ccc(F)cc1 [Compound 15] |  | 17 nM |  |
| CCc1c(C(=O)C(N)=O)c2c(OCC(=O)O)nc(C)cn2c1Cc1ccccc1-c1ccc(C)s1 [Compound 22] | 13 nM |  |  |
| CCc1c(C(=O)C(N)=O)c2c(OCC(=O)O)nc(C)cn2c1Cc1cccc(-c2ccccc2)c1 [Compound 1] | 12 nM |  |  |
